From patent US5684151A, “1-arylsulphonyl, arylcarbonyl and 1-arylphosphonyl-3-phenyl-1,4,5,6-tetrahydropyridazines” (priority 1995, dated 1997)
Where two headings read alike, the source gives them in different places.

Key:
[1] = target: T1, progestin receptor from rabbit uterus (Oryctolagus cuniculus, UniProt P06186); experiment: Progestin receptor binding (3H-R5020 displacement); conditions: rabbit uterine cytosol, 4° C., 18 h, read-out: IC50: Binding affinity for the progestin receptor from rabbit uterus
T1 construct: Cytosolic progestin receptor were obtained by mixing rabbit uterine tissue with a Tris buffer; from tissue; host or cells: rabbit uterus cytosol
Protocol: A progestin initiates a biological response by first binding to a progestin receptor. Affinity for progestin receptors was determined by measuring the ability of compounds to displace a progestin radioligand from those receptors in vitro. Cytosolic progestin receptor were obtained by mixing rabbit uterine tissue with a Tris buffer [0.1M Tris-Hcl, 1 mM Na2 EDTA, 1 mM dithiothreotol, 1 mM sodium molybdate, 1% glycerol, pH 7.4]. The tissue/buffer mixture was homogenized under ice-cold conditions. The homogenate was then centrifuged and the supernatant (cytosol preparation) was decanted and stored at -70° C. and thawed prior to use. The competitive binding assay was performed by mixing ^3 H-R5020, a progestin radioligand, with cytosol preparation and various concentrations of test compounds (prepared in DMSO with a final 5% DMSO concentration). This mixture was then incubated at 4° C. for about 18 hours. Non-specific binding was determined using an unlabelled ligand in excess. After the incubation period, the radioligand bound to receptor was separated from free radioligand using dextran-coated charcoal. The amount of bound radioligand was then determined by liquid scintillation counting. The data were expressed as the concentration of test compound that displaced 50% of the radioligand from the receptor (IC50)
Aspects of the application used in this procedure are described in the following: J. L. McGuire et al., Biochemistry 13, 319, 1974.

[2] = tested on: mouse (MC3T3-E1) and human (TE-85) osteoblast-line cells; format: cell-based
In short: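 Proliferation was read as ^3H-thymidine (0.4 μCi) uptake during a 4 h pulse, which started 20 h after compound addition. Before dosing, cells sat 24 h in 0.1% FBS. Values are % times control (100%).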

T1 sequence (P06186 whole entry): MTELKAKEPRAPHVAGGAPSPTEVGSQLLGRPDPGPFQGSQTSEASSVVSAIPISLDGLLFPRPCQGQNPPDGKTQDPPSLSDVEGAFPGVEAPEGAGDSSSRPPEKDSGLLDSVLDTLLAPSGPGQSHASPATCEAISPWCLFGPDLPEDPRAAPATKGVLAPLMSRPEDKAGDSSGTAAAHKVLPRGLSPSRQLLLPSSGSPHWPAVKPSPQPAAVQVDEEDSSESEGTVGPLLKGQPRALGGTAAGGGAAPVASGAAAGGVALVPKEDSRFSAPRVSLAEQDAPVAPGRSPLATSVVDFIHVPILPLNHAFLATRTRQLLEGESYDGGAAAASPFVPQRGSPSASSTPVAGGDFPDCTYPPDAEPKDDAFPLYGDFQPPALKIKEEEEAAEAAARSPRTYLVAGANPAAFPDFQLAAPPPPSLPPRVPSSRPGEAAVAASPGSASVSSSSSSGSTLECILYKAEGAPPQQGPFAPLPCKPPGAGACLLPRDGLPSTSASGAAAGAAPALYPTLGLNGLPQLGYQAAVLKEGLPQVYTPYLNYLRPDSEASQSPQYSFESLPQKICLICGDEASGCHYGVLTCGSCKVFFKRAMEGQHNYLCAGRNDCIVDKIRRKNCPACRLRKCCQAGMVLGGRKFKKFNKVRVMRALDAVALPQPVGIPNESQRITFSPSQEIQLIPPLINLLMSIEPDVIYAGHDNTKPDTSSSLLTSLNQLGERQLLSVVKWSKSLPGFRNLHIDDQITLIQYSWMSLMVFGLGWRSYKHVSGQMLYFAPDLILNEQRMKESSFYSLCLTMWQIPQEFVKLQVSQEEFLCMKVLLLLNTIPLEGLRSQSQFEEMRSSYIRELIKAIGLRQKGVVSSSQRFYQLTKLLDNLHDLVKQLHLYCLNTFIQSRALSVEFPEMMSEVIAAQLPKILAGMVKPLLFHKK

Row | SMILES | IC50 [1] [nM] | Osteoblast Cell Proliferation, 3H-thymidine incorporation vs control (100%) ([2]; 10^-6) [%] | Osteoblast Cell Proliferation, 3H-thymidine incorporation vs control (100%) ([2]; 10^-7) [%] | Osteoblast Cell Proliferation, 3H-thymidine incorporation vs control (100%) ([2]; 10^-8) [%] | Osteoblast Cell Proliferation, 3H-thymidine incorporation vs control (100%) ([2]; 10^-9) [%] | Osteoblast Cell Proliferation, 3H-thymidine incorporation vs control (100%) ([2]; 10^-10) [%]
1 | COc1ccc(C2=NN(S(=O)(=O)c3ccccc3)CCC2)cc1 [Compound 64] | 550 | 116 | 115 | 121 | 128 | 137
2 | O=S(=O)(c1cc(Cl)ccc1Cl)N1CCCC(c2ccc(F)cc2)=N1 [Compound 11] | 20 | 106 | 135 | 156 | 131 | 154
3 | O=S(=O)(c1cc(Cl)ccc1Cl)N1CCCC(c2ccc3c(c2)CCCC3)=N1 [Compound 89] | 21.6 | 115 | 97 | 113 | 106 | 98
4 | O=S(=O)(c1ccc(Br)cc1)N1CCCC(c2ccc(Cl)cc2)=N1 [Compound 13] | 9 | 88 | 109 | 114 | 109 | 152
5 | O=S(=O)(/C=C/c1ccccc1)N1CCCC(c2ccc(Cl)c(Cl)c2)=N1 [Compound 167] | 5.93 | 126 | 109 | 136 | 144 | 165
6 | COc1ccc(C(=O)N2CCCC(c3ccc(Cl)cc3)=N2)cc1 [Compound 194] | 100000 | 93 | 130 | 136 | 138 | 144
7 | O=S(=O)(c1ccc2ccccc2c1)N1CCCC(c2ccccc2)=N1 [Compound 51] | 203 | 119 | 120 | 144 | 126 | 158
8 | O=C(c1ccc(Cl)c(Cl)c1)N1CCCC(c2ccc(Cl)c(Cl)c2)=N1 [Compound 216] | 103 | 105 | 108 | 105 | 96 | 100
9 | O=[N+]([O-])c1ccc(S(=O)(=O)N2CCCC(c3ccc(Cl)cc3)=N2)cc1 [Compound 4] | 201 | 108 | 111 | 155 | 153 | 158
10 | O=S(=O)(c1ccc(Cl)cc1)N1CCCC(c2ccc(Cl)cc2)=N1 [Compound 6] | 15 | 81 | 97 | 106 | 114 | 121
11 | CC(C)(C)c1ccc(C(=O)N2CCCC(c3ccc(Cl)cc3)=N2)cc1 [Compound 195] | 100000 | 103 | 114 | 125 | 127 | 136
12 | CCCCc1ccc(C2=NN(S(=O)(=O)c3ccc4ccccc4c3)CCC2)cc1 [Compound 72] | 10000 | 113 | 119 | 129 | 120 | 123
13 | O=S(=O)(c1ccc(Cl)cc1)N1CCCC(c2ccc(-c3ccccc3)cc2)=N1 [Compound 84] | 1000 | 108 | 119 | 130 | 127 | 122
14 | O=C(c1ccc(Cl)cc1)N1CCCC(c2ccc(Cl)cc2)=N1 [Compound 193] | 10000 | 107 | 161 | 162 | 190 | 208
15 | CC(=O)Nc1ccc(S(=O)(=O)N2CCCC(c3ccc(Cl)cc3)=N2)cc1 [Compound 154] | 819 | 97 | 111 | 107 | 124 | 115
16 | CCOP(=O)(c1ccccc1)N1CCCC(c2ccc(Cl)c(Cl)c2)=N1 (stereo not drawn) [Compound 255] | 204 | 107 | 125 | 139 | 132 | 145
17 | Cc1ccc(C(=O)N2CCCC(c3ccc(Cl)cc3)=N2)cc1 [Compound 192] | 100000 | 115 | 131 | 128 | 132 | 148
18 | O=C(c1ccc([N+](=O)[O-])cc1)N1CCCC(c2ccc(F)cc2)=N1 [Compound 203] | 978 | 73 | 85 | 102 | 98 | 106
19 | O=C(c1ccccc1)N1CCCC(c2ccc(Cl)cc2)=N1 [Compound 191, 1-Benzoyl-3-(4-chlorophenyl)-1,4,5,6-tetrahydropyridazine] | 100000 | 86 | 133 | 126 | 133 | 123
20 | CCOP(=O)(c1ccccc1)N1CCCC(c2ccc(Cl)c(C(F)(F)F)c2)=N1 (stereo not drawn) [Compound 262] | 958 | 99 | 104 | 102 | 110 | 141
21 | COc1ccc(C2=NN(C(=O)c3ccc(C(C)(C)C)cc3)CCC2)cc1 [Compound 201] | 100000 | 89 | 117 | 91 | 69 | 52
22 | CC(C)OP(=O)(c1ccccc1)N1CCCC(c2ccc(Cl)c(Cl)c2)=N1 (stereo not drawn) [Compound 256] | 95.5 | 97 | 100 | 104 | 128 | 116
